Measurements taken from publication PMC5515969, “Effects of 31 FDA approved small-molecule kinase inhibitors on isolated rat liver mitochondria” (Archives of Toxicology, 2016).
Where two headings read alike, the source gives them in different places.

Tests used:
RCC II = biological target: T1, RCC II (Rattus norvegicus, UniProt P21913+Q641Z9+Q6PCT8+Q920L2); assay: RCC II activity in submitochondrial particles; type: biochemical; parameters: key: activity relative to DMSO-treated controls (control set as 1 = 100%); conditions: relative to DMSO treated samples
T1 construct: Submitochondrial particles were prepared by subjecting the intact mitochondria to three successive freeze–thaw cycles; from tissue; host or cells: rat liver mitochondria, used as submitochondrial particles
T1 sequence (Q920L2 35-656): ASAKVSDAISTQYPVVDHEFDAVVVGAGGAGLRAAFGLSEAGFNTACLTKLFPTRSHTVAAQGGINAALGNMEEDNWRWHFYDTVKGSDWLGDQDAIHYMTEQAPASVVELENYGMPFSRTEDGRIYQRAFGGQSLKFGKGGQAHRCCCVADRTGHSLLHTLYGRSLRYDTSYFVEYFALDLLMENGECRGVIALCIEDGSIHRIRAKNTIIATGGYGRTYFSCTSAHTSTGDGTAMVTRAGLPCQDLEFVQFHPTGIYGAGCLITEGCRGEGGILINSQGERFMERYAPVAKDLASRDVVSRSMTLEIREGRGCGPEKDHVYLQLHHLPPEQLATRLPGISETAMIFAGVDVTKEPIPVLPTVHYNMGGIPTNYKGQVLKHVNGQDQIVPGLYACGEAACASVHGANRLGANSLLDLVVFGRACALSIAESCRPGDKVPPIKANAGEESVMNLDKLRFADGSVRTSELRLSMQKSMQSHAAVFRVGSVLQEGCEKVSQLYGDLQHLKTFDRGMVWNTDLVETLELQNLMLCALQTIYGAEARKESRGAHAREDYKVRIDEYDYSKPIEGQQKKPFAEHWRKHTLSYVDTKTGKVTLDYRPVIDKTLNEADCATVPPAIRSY
T1 sequence (P21913 31-282): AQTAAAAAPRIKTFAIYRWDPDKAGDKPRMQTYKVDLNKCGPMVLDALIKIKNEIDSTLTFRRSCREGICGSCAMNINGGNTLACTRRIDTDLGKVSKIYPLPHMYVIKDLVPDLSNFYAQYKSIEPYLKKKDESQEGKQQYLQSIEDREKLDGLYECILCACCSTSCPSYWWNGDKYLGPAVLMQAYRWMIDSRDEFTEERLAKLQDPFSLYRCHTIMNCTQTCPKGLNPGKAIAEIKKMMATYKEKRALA
T1 sequence (Q641Z9 1-169): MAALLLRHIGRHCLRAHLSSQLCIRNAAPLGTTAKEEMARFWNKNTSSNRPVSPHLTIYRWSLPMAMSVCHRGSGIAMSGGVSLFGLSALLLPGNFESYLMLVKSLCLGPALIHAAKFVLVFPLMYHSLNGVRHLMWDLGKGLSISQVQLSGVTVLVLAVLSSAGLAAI
T1 sequence (Q6PCT8 57-159): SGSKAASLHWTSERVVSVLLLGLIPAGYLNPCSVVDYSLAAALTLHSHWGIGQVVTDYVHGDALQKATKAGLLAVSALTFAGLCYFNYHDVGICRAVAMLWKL
How it was run: (§1)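 Kinase inhibitors were preincubated 15 min with submitochondrial particles (1 mg/ml) before complex activities were measured. RCC I was the rotenone-sensitive portion (activity without minus with rotenone). RCC I/V was read at 340 nm and RCC II at 600 nm every 1 min for 6 min. RCC III and IV were read at 550 nm every 10 s for 2 min. Activities are normalized to DMSO controls set as 1.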

RCC III = RCC III activity in submitochondrial particles; type: biochemical, rat; parameters: key to RCC III at 100XCmax: activity relative to DMSO-treated controls (control set as 1 = 100%)
How it was run: as §1

[1] = cited from earlier work
[2] = tested on: isolated rat liver mitochondria; assay: Mitochondrial swelling (absorbance at 535 nm); type: biochemical; conditions: difference in signal between KI and DMSO treated samples at the end of experiments; for Swelling 5XCmax: key: 0 indicates that the drug had no effects (negative)
RCC I = RCC I activity in submitochondrial particles; type: biochemical, rat; parameters: key to RCC I at 10XCmax / RCC I at 100XCmax / RCC I at 50XCmax / RCC I at 30XCmax / RCC I at 20XCmax: activity relative to DMSO-treated controls (control set as 1 = 100%)
How it was run: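 Abs 340 nm (I/V) or 600 nm (II), 1-min reads × 6 min; 550 nm (III, IV), 10-s reads × 2 min. RCC I = rotenone-free minus rotenone rate. DMSO control = 1.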

[3] = therapeutic maximal blood concentration; ref product labeling; cited from earlier work
RCC IV = RCC IV activity in submitochondrial particles; type: biochemical, rat; parameters: key to RCC IV at 50XCmax / RCC IV at 100XCmax: activity relative to DMSO-treated controls (control set as 1 = 100%)
How it was run: as §1

[4] = tested on: isolated rat liver mitochondria; assay: Mitochondrial oxygen consumption (glutamate/malate or succinate driven, state 4 and state 3); type: biochemical; conditions: DMSO treated samples set as 1; for State 3 respiration driven by succinate at 10XCmax: key: 0 indicates that the drug had no effects (negative); for State 3 respiration driven by succinate at 1XCmax: key: 0 indicates that the drug had no effects (negative)
How it was run: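 Rat liver mitochondria (1 mg/ml protein) exposed 5 min to kinase inhibitors in 0.1% DMSO, then O2 consumption measured by Clark-type electrode with glutamate/malate or succinate (state 4), ADP added after 3 min (state 3). Rates normalized to 0.1% DMSO controls set to 1.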

[5] = tested on: isolated rat liver mitochondria; assay: Mitochondrial inner membrane potential (MMP), Rhodamine 123; type: biochemical; conditions: difference in signal between KI and DMSO treated samples at the end of experiments
Description: Fig. 3 KI effects on mitochondrial inner membrane potential (MMP). […] In a, c, data are means and standard derivations from three separate experiments. *p < 0.05 as compared to DMSO-treated samples at the end of experiments. In b, data are means of two independent experiments

RCC V = RCC V activity in submitochondrial particles; type: biochemical, rat; for RCC V at 5XCmax: key: 0 indicates that the drug had no effects (negative)
How it was run: as §1

[6] = 100-fold Cmax, 15 min, DMSO-treated = 100
[7] = 100XCmax, relative to DMSO treated samples

COc1cc(Nc2c(C#N)cnc3cc(OCCCN4CCN(C)CC4)c(OC)cc23)c(Cl)cc1Cl [Bosutinib]
200 ng/mL: Cmax [3]
101.81 ± 4.43 % of control: RCC activity III (RCC III; [6])
88.03 ± 3.01 % of control: RCC activity I (RCC I; [6])
1: DILI potential (based on labeling) ([1]; 1 = DILI positive, 0 = negative, ref product labeling) | DILI potential (based on labeling) ([1]; ref FDA product labeling)
88.03±3.01: RCC I at 100XCmax (RCC I; [7])
W&P: ALT↑: Labeling for DILI ([1]; BBW: black box warning, W&P: Warnings and Precautions, ref product labeling)
101.25 ± 2.26 % of control: RCC activity IV (RCC IV; [6])
W&P: ALT↑/monitoring: labeling for DILI ([1]; W&P warnings and precautions, BBW black box warnings, ref FDA product labeling)
91.53 ± 6.49 % of control: RCC activity V (RCC V; [6])
0: RCC II at 1.0XCmax (RCC II; 1.0XCmax) | RCC II at 2.5XCmax (RCC II; 2.5XCmax) | RCC II at 5XCmax (RCC II; 5XCmax) | RCC II at 10XCmax (RCC II; 10XCmax) | RCC II at 20XCmax (RCC II; 20XCmax) | RCC II at 30XCmax (RCC II; 30XCmax) | RCC II at 50XCmax (RCC II; 50XCmax) | RCC II at 100XCmax (RCC II; 100XCmax) | RCC III at 100XCmax (RCC III; [7]) | Swelling 1XCmax ([2]; 1XCmax) | Swelling 2.5XCmax ([2]; 2.5XCmax) | Swelling 5XCmax ([2]; 5XCmax) | Swelling 10XCmax ([2]; 10XCmax) | Swelling 20XCmax ([2]; 20XCmax) | Swelling 30XCmax ([2]; 30XCmax) | Swelling 50XCmax ([2]; 50XCmax) | Swelling 100XCmax ([2]; 100XCmax) | RCC I at 10XCmax (RCC I; 10XCmax, relative to DMSO treated samples) | RCC IV at 50XCmax (RCC IV; 50XCmax, relative to DMSO treated samples, in %) | State 3 respiration driven by glutamate/malate at 1XCmax ([4]; 1XCmax) | State 3 respiration driven by succinate at 1XCmax ([4]; 1XCmax) | State 4 respiration driven by glutamate/malate at 1XCmax ([4]; 1XCmax) | State 4 respiration driven by succinate at 1XCmax ([4]; 1XCmax) | State 3 respiration driven by glutamate/malate at 2.5XCmax ([4]; 2.5XCmax) | State 3 respiration driven by succinate at 2.5XCmax ([4]; 2.5XCmax) | State 4 respiration driven by glutamate/malate at 2.5XCmax ([4]; 2.5XCmax) | State 4 respiration driven by succinate at 2.5XCmax ([4]; 2.5XCmax) | State 3 respiration driven by glutamate/malate at 5XCmax ([4]; 5XCmax) | State 3 respiration driven by succinate at 5XCmax ([4]; 5XCmax) | State 4 respiration driven by glutamate/malate at 5XCmax ([4]; 5XCmax) | State 4 respiration driven by succinate at 5XCmax ([4]; 5XCmax) | State 3 respiration driven by glutamate/malate at 10XCmax ([4]; 10XCmax) | State 3 respiration driven by succinate at 10XCmax ([4]; 10XCmax) | State 4 respiration driven by glutamate/malate at 10XCmax ([4]; 10XCmax) | State 4 respiration driven by succinate at 10XCmax ([4]; 10XCmax) | State 3 respiration driven by glutamate/malate at 20XCmax ([4]; 20XCmax) | State 3 respiration driven by succinate at 20XCmax ([4]; 20XCmax) | State 4 respiration driven by glutamate/malate at 20XCmax ([4]; 20XCmax) | State 4 respiration driven by succinate at 20XCmax ([4]; 20XCmax) | State 3 respiration driven by glutamate/malate at 30XCmax ([4]; 30XCmax) | State 3 respiration driven by succinate at 30XCmax ([4]; 30XCmax) | State 4 respiration driven by glutamate/malate at 30XCmax ([4]; 30XCmax) | State 4 respiration driven by succinate at 30XCmax ([4]; 30XCmax) | State 3 respiration driven by glutamate/malate at 50XCmax ([4]; 50XCmax) | State 3 respiration driven by succinate at 50XCmax ([4]; 50XCmax) | State 4 respiration driven by glutamate/malate at 50XCmax ([4]; 50XCmax) | State 4 respiration driven by succinate at 50XCmax ([4]; 50XCmax) | State 3 respiration driven by glutamate/malate at 100XCmax ([4]; 100XCmax) | State 3 respiration driven by succinate at 100XCmax ([4]; 100XCmax) | State 4 respiration driven by glutamate/malate at 100XCmax ([4]; 100XCmax) | State 4 respiration driven by succinate at 100XCmax ([4]; 100XCmax) | MMP measured by Rhodamine 123 at 1XCmax ([5]; 1XCmax) | MMP measured by Rhodamine 123 at 2.5XCmax ([5]; 2.5XCmax) | MMP measured by Rhodamine 123 at 5XCmax ([5]; 5XCmax) | MMP measured by Rhodamine 123 at 10XCmax ([5]; 10XCmax) | MMP measured by Rhodamine 123 at 20XCmax ([5]; 20XCmax) | MMP measured by Rhodamine 123 at 30XCmax ([5]; 30XCmax) | MMP measured by Rhodamine 123 at 50XCmax ([5]; 50XCmax) | MMP measured by Rhodamine 123 at 100XCmax ([5]; 100XCmax) | RCC V at 5XCmax (RCC V; 5XCmax, relative to DMSO treated samples) | RCC V at 50XCmax (RCC V; 50XCmax, relative to DMSO treated samples)
